Data as given in PubChem BioAssay AID1963863 (Molecular Pharmacology Branch, DTP, NCI, 2024).

System: 931267-113-T-J1-PDC KRAS spheroid with HUVEC/MSC, viability
Test: Anticancer human tumor 931267-113-T-J1-PDC patient-derived colon adenocarcinoma cell line growth inhibition [KRAS2]
Conditions: for IC50: curve of first compound; for viability, T/C: stronger effect = lower value
Procedure, shortened: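 Combination screen of spheroid viability in tumor-cell co-cultures with endothelial (HUVEC) and mesenchymal stem cell stroma. Each agent was tested in half-log dilutions, topping at clinical Cmax or at 10 microM without a known Cmax.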

[1] = second compound 0.1 µM, first compound 0.0316 µM
[2] = second compound 0.1 µM, first compound 0.1 µM
[3] = second compound 0.1 µM, first compound 0.316 µM
[4] = second compound 0.1 µM, first compound 1 µM
[5] = second compound 0.1 µM, first compound 3.16 µM
[6] = second compound 0.1 µM, first compound 10 µM
[7] = second compound 0.316 µM, first compound 0.0316 µM
[8] = second compound 0.316 µM, first compound 0.1 µM
[9] = second compound 0.316 µM, first compound 0.316 µM
[10] = second compound 0.316 µM, first compound 1 µM
[11] = second compound 0.316 µM, first compound 3.16 µM
[12] = second compound 0.316 µM, first compound 10 µM
[13] = second compound 1 µM, first compound 0.0316 µM
[14] = second compound 1 µM, first compound 0.1 µM
[15] = second compound 1 µM, first compound 0.316 µM
[16] = second compound 1 µM, first compound 1 µM
[17] = second compound 1 µM, first compound 3.16 µM
[18] = second compound 1 µM, first compound 10 µM
[19] = second compound 3.16 µM, first compound 0.0316 µM
[20] = second compound 3.16 µM, first compound 0.1 µM
[21] = second compound 3.16 µM, first compound 0.316 µM
[22] = second compound 3.16 µM, first compound 1 µM
[23] = second compound 3.16 µM, first compound 3.16 µM
[24] = second compound 3.16 µM, first compound 10 µM
[25] = second compound 10 µM, first compound 0.0316 µM
[26] = second compound 10 µM, first compound 0.1 µM
[27] = second compound 10 µM, first compound 0.316 µM
[28] = second compound 10 µM, first compound 1 µM
[29] = second compound 10 µM, first compound 3.16 µM
[30] = second compound 10 µM, first compound 10 µM
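Also: compound exposure lasted 7 days before the readout.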
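For viability, T/C in this document: 100% = DMSO vehicle control viability.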

| Structure (SMILES) | IC50 (second compound 0.1 µM) [nM] | IC50 (second compound 0.316 µM) [nM] | IC50 (second compound 1 µM) [nM] | IC50 (second compound 3.16 µM) [nM] | IC50 (second compound 10 µM) [nM] | viability, T/C [1] [%] | viability, T/C [2] [%] | viability, T/C [3] [%] | viability, T/C [4] [%] | viability, T/C [5] [%] | viability, T/C [6] [%] | viability, T/C [7] [%] | viability, T/C [8] [%] | viability, T/C [9] [%] | viability, T/C [10] [%] | viability, T/C [11] [%] | viability, T/C [12] [%] | viability, T/C [13] [%] | viability, T/C [14] [%] | viability, T/C [15] [%] | also measured |
| --- | --- | --- | --- | --- | --- | --- | --- | --- | --- | --- | --- | --- | --- | --- | --- | --- | --- | --- | --- | --- | --- |
| COc1cc(Nc2ncc3c(n2)-c2ccc(Cl)cc2C(c2c(F)cccc2OC)=NC3)ccc1C(=O)O + CC1OCC2(CCN(c3cnc(Sc4ccnc(N)c4Cl)c(N)n3)CC2)C1N | > 10000 | 6420 | 848 | 571 | 799 | 69.3 | 75.1 | 58.4 | 58 | 51.7 | 54 | 67.4 | 68.7 | 57.1 | 61.3 | 49 | 49.5 | 62.4 | 52.4 | 54.4 | viability, T/C [16]: 51.5%; viability, T/C [17]: 41.3%; viability, T/C [18]: 31.6%; viability, T/C [19]: 53.4%; viability, T/C [20]: 64.6%; viability, T/C [21]: 56.8%; viability, T/C [22]: 42%; viability, T/C [23]: 33.3%; viability, T/C [24]: 21.6%; viability, T/C [25]: 70.2%; viability, T/C [26]: 65.4%; viability, T/C [27]: 51.1%; viability, T/C [28]: 46.8%; viability, T/C [29]: 43.3%; viability, T/C [30]: 15.8% |
| COc1cc2nccc(Oc3ccc(NC(=O)C4(C(=O)Nc5ccc(F)cc5)CC4)cc3)c2cc1OC + CC1OCC2(CCN(c3cnc(Sc4ccnc(N)c4Cl)c(N)n3)CC2)C1N | > 10000 | 2790 | 3060 | 4530 | 2930 | 87 | 116 | 102 | 88.8 | 51.4 | 66.6 | 81.9 | 91.9 | 84.9 | 99.5 | 45.1 | 37.4 | 92.8 | 95.8 | 86.3 | viability, T/C [16]: 88.2%; viability, T/C [17]: 48.1%; viability, T/C [18]: 49.5%; viability, T/C [19]: 78.6%; viability, T/C [20]: 99%; viability, T/C [21]: 91.3%; viability, T/C [22]: 92.1%; viability, T/C [23]: 57.5%; viability, T/C [24]: 33.5%; viability, T/C [25]: 99.2%; viability, T/C [26]: 101%; viability, T/C [27]: 93.3%; viability, T/C [28]: 86.5%; viability, T/C [29]: 47.1%; viability, T/C [30]: 30.5% |
